Results reported in patent US10258621B2, “Methods and compositions for treating HIV-related disorders” (CHDI Foundation, Inc., priority 2014, dated 2019).
Entries after “also recorded” stand apart in the source; their conditions may differ.

Tests used:
[1] = tested on: extracellular levels of KYN, KYNA, 3-OH-KYN, AA and QA in the striatum; assay: Microdialysis after PO dosing of kynurenine, Compound 6 or both: extracellular KP metabolites in striatum; format: in vivo, adult male WT mice; details: 30 mg/kg p.o., dosed alone; WT mice
Experimental: (§1) Animals were anesthetized using isoflurane (2%, 800 mL/min O2). Bupivacain/epinephrine was used for local analgesia, finadyne or carprophen for peri-/post-operative analgesia. The animals were placed in a stereotaxic frame (Kopf instruments, USA). I-shaped probes (membrane: polyacrylonitrile, 3 mm exposed surface; Brainlink, the Netherlands) were inserted in the striatum. After surgery, animals were kept individually in cages; provided food and water ad libitum.
(§2) Experiments were performed one day after surgery. On the day of the experiment, the probes of the animals were connected with flexible PEEK tubing to a microperfusion pump (Harvard PHD 2000 Syringe pump, Holliston, Mass. or similar). The I-shaped microdialysis probes were perfused with aCSF containing 147 mM NaCl, 3.0 mM KCl, 1.2 mM CaCl2 and 1.2 mM MgCl2, at a flow rate of 1.5 μL/min. Microdialysis samples were collected at 20-minute intervals by an automated fraction collector (820 Microsampler, Univentor, Malta or similar) into mini-vials already containing 10 μL 0.02 M formic acid (FA) and 0.04% ascorbic acid in ultrapurified H2O. At t=−30 min vehicle or KMO inhibitor were be administered, to ensure central and peripheral inhibition of KMO at the time of administration of kynurenine. At t=0 vehicle or kynurenine were administered. Microdialysate samples were collected for 240 min after administration of kynurenine. All the dialysis samples were stored at −80° C. awaiting their analysis. Dialysate levels of any or all of KP metabolites KYN, KYNA, 3-OH—KYN, AA and QA were quantified by LC-MS/MS at by Brains On-Line. After the experiment, the mice were sacrificed and terminal brain (striatum+cortex), liver, kidney, plasma and CSF samples were collected for analysis of KP metabolites. Levels of KP metabolites were measured in terminal brain (striatum+cortex), liver, kidney, plasma and CSF samples at Brains On-Line. Finally, levels of kynurenine and KMO inhibitors in dose formulation samples were quantified by Brains On-Line.
A method of examining the pharmacodynamic effects of kynurenine (30 mg/kg, p.o.) and Compound 6 (30 mg/kg, p.o.) on extracellular levels of KYN, KYNA, 3-OH—KYN, AA and QA in the striatum (STR) of adult male WT mice either co-dosed or dosed independently is disclosed.
Furthermore, PO administration of Compound 6 blocks toxic metabolites 3-OH—KYN (see FIG. 10) and QA (see FIG. 11), whereas kynurenine dosing increases them, due to kynurenine catabolism in mice brain.

KP metabolite KYNA = assay: Microdialysis after PO dosing in WT and HD (Q175_KI homozygous) animals: KYNA in striatum; format: in vivo, mouse; details: PO 3 mg/kg or 10 mg/kg
Experimental: as §1
Experiments were performed one day after surgery. On the day of the experiment, the probes of the animals were connected with flexible PEEK tubing to a microperfusion pump (Harvard PHD 2000 Syringe pump, Holliston, Mass. or similar). […] Dialysate levels of any or all of KP metabolites KYN, KYNA, 3-OH—KYN, AA and QA were quantified by LC-MS/MS at by Brains On-Line. […] Levels of KP metabolites were measured in terminal brain (striatum+cortex), liver, kidney, plasma and CSF samples at Brains On-Line. Finally, levels of kynurenine and KMO inhibitors in dose formulation samples were quantified by Brains On-Line.
A method of examining the modulation of KP metabolites in HD animals similar to WT controls is disclosed. […] Following the microdialysis procedure described herein, dialysate levels of KP metabolite KYNA was quantified by LC-MS/MS at by Brains On-Line. […]

[2] = tested on: KP metabolites (KYN, KYNA, AA, 3-HK) via KMO inhibition; assay: Microdialysis after PO dosing at various dosage levels: KP metabolites in striatum extracellular space; format: in vivo; details: PO 3, 10 or 30 mg/kg; mouse striatum microdialysis
Experimental: as §1, §2
A method of examining the modulation of KYN, KYNA, AA, and 3-HK via KMO inhibition with Compound 6 in striatum extracellular space is disclosed. […] Following the microdialysis procedure described herein, dialysate levels of KP metabolites KYN, KYNA, 3-HK, and AA were quantified by LC-MS/MS at by Brains On-Line.

KMO = molecular target: T1, KMO (Homo sapiens, UniProt O15229); assay: KMO inhibition: L-kynurenine hydroxylation to 3OH-KYN monitored by LC/MS; format: biochemical; details: 10 μM compound
T1 construct: GST; His; expressed in transfected cells; host or cells: CHO (CHO-GST HIS KMO cell line)
T1 sequence (O15229 whole entry): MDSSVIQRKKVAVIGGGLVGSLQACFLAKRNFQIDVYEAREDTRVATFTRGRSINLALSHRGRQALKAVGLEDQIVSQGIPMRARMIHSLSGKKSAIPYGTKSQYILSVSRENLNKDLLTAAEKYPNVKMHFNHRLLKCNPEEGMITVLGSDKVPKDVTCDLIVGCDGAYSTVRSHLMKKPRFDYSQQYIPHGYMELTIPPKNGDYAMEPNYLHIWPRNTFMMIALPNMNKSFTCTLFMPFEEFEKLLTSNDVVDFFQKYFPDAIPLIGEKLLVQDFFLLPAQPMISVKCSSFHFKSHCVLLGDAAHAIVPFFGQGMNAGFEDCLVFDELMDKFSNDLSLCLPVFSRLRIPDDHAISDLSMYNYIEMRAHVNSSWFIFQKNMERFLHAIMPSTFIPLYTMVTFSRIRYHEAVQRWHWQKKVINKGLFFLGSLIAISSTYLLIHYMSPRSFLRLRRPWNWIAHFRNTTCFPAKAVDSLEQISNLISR
Experimental: A generalized procedure for monitoring L-Kynurenine (KYN) hydroxylation to form product 3-Hydroxy-Kynurenine (3OH—KYN) by LC/MS is described below. Product is quantified by multiple reaction monitoring using MS.
IC50's are calculated using automated fitting algorithm (A+ Analysis)
A method of monitoring L-Kynurenine (KYN) hydroxylation to form product 3-Hydroxy-Kynurenine (3OH—KYN) by LC/MS is described below. Product is quantified by multiple reaction monitoring.
• Compound: Stock concentrations: 10 mM in 100% DMSO • Enzyme: KMO enzyme prepared at Evotec via mitochondria isolation from CHO-GST HIS KMO cells • Substrate: L-Kynurenine (Sigma: Cat#K3750) • [stock concentration: 10 mM in 100 mM potassium phosphate buffer, pH 7.4]
IC50's are calculated using automated fitting algorithm (A+ Analysis).
A method of monitoring L-Kynurenine (KYN) hydroxylation to form 3-Hydroxy-Kynurenine (3OH—KYN) by LC/MS is described. Product is quantified by multiple reaction monitoring (MRM method).

[3] = molecular target: NMDA receptor NR2B subunit (Homo sapiens, UniProt Q13224); details: NMDA receptor agonist; cited from earlier work
Chain of NMDA receptor NR2B subunit (Q13224 27-1484, other chains not shown): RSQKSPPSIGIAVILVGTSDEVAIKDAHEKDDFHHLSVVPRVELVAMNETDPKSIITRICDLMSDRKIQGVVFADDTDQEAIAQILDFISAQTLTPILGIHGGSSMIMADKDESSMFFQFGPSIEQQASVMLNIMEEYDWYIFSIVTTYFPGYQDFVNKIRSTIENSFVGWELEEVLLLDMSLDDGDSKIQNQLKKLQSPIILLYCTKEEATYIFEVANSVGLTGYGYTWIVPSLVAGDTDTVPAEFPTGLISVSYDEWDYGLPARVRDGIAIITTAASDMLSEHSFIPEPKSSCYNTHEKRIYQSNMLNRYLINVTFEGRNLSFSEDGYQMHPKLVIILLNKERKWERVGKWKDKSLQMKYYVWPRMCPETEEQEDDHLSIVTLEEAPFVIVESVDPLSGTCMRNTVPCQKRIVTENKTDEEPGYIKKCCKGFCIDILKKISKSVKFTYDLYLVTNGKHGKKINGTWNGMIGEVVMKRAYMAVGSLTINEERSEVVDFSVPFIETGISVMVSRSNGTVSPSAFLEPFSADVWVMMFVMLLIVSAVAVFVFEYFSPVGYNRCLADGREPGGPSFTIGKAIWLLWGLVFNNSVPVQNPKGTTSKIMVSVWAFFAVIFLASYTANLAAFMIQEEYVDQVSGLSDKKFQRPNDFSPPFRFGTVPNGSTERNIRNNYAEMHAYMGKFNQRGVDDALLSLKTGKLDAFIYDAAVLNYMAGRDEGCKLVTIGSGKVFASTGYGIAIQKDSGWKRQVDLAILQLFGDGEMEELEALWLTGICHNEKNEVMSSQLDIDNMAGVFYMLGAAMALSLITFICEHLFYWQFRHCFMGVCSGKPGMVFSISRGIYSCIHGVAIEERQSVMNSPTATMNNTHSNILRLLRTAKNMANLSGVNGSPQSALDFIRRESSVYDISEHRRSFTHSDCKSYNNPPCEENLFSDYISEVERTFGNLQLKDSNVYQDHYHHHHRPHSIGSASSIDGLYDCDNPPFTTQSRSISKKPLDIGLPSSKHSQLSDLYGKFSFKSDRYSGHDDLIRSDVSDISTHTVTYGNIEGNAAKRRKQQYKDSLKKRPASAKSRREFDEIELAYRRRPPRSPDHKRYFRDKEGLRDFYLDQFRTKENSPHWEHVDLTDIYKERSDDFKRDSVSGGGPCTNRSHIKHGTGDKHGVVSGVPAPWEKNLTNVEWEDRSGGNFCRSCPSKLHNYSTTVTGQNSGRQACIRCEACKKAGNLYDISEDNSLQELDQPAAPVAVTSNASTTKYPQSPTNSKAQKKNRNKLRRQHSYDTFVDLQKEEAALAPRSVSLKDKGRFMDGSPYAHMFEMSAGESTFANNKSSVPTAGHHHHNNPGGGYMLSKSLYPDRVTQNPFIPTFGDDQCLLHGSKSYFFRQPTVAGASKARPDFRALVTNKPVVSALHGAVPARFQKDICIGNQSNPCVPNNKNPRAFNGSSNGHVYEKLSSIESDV

[4] = molecular target: NMDA receptor NR2A subunit (Homo sapiens, UniProt Q12879); details: NMDA receptor agonist; cited from earlier work
Chain of NMDA receptor NR2A subunit (Q12879 23-1464, other chains not shown): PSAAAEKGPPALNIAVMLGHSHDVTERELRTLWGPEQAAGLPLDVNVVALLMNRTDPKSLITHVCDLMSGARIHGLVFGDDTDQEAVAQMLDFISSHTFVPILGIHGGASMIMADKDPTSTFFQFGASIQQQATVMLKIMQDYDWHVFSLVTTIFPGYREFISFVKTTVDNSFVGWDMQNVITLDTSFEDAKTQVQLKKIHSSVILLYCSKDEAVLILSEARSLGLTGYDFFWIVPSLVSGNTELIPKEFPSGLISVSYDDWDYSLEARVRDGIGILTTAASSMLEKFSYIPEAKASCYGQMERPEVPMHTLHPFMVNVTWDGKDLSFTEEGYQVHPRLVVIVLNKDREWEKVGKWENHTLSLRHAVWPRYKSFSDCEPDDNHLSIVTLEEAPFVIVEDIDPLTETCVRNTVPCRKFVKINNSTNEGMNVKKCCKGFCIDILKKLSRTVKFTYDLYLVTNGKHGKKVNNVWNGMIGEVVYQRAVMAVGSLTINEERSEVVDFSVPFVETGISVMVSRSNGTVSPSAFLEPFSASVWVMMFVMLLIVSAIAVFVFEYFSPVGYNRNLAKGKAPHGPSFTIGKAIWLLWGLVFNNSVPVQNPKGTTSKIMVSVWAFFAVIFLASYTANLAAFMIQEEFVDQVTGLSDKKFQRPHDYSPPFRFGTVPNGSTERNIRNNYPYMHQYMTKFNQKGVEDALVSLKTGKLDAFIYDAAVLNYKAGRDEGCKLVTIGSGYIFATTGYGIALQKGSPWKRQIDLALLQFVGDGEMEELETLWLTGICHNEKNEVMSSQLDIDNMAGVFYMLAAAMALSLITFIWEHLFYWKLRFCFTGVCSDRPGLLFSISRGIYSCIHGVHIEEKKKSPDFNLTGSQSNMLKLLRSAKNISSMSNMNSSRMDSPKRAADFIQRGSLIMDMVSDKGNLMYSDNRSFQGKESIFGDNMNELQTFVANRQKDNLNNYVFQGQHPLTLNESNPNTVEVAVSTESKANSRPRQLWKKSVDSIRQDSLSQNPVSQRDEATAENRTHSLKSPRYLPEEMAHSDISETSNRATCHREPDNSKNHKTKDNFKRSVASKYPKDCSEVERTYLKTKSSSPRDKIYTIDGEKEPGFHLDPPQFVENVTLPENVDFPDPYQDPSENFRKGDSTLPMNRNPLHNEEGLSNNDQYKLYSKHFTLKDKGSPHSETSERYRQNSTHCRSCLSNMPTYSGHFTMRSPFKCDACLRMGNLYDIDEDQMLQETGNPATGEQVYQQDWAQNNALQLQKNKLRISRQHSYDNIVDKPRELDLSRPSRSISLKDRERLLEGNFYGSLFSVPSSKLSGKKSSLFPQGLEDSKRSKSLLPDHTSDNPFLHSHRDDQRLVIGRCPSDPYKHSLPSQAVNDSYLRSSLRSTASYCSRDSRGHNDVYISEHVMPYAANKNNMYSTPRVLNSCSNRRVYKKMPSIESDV

SMILES | 3-OH-KYN in striatum [1] | AA in striatum [1] | KYN in striatum [1] | KYNA in striatum [1] | QA in striatum [1] | inhibition at 10 µM (KMO) [%] | other results
Nc1ccccc1C(=O)CC(N)C(=O)O (stereo not drawn) [kynurenine, reference compound] | increases | little or no effect | little or no effect | little or no effect | increases | – | –
O=C(O)c1cc(-c2ccc(OC3CC3)c(Cl)c2)ncn1 [Compound 6, 6-(3-chloro-4-cyclopropoxyphenyl)pyrimidine-4-carboxylic acid] | blocks | increases | increases | increases | blocks | 100 | KP metabolite KYNA in striatum, HD mice (KP metabolite KYNA; Q175_KI homozygous (HD) mice): dose dependent increase; also recorded: increases; KP metabolite KYNA in striatum, WT mice (KP metabolite KYNA; wild type mice): dose dependent increase; also recorded: increases; 3-HK in striatum extracellular space [2]: insufficient modulation; also recorded: little or no effect; AA in striatum extracellular space [2]: dose dependent increases; KYN in striatum extracellular space [2]: dose dependent increases; KYNA in striatum extracellular space [2]: dose dependent increases
O=C(O)c1cccnc1C(=O)O [QUIN, quinolinic acid] | – | – | – | – | – | – | affinity for NR2B subunit [3]: 100 µmol; affinity for NR2A subunit [4]: 7 to 10 µmol
CC[C@@H](C)Oc1ccc(-c2cc(C(=O)O)ncn2)cc1Cl [Compound 5, (R)-6-(4-sec-butoxy-3-chlorophenyl)pyrimidine-4-carboxylic acid] | – | – | – | – | – | 100 | –
CC[C@H](C)Oc1ccc(-c2cc(C(=O)O)ncn2)cc1Cl [Compound 4, (S)-6-(4-sec-butoxy-3-chlorophenyl)pyrimidine-4-carboxylic acid] | – | – | – | – | – | 100 | –
